PubChem BioAssay AID179 (DTP/NCI, 2004)
Values joined by “and” are separate entries in the source; they are usually repeats but may differ in a detail not shown here. Equal entries are not always repeated. Active and inactive are the calls of the source.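 How the source made its calls: active means compounds giving half or more protection of infected cells from virus-caused growth loss, again on retest; inactive means the rest.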

Test system: CEM cells HIV-1 protection, formazan growth assay
Assay: NCI AIDS Antiviral Assay
Settings: for IC50: measured here: growth of uninfected CEM cells
Outline: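 Protection of CEM cells against HIV-1 measured as cell growth via soluble formazan read-out, with five concentrations tested on both infected and uninfected cells; failure to protect may reflect toxicity.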

| Compound | EC50 [µM] | IC50 | outcome |
| --- | --- | --- | --- |
| Oc1ccccc1C1SC(c2ccccc2O)SC(c2ccccc2O)S1 (stereo not given) | > 200 | 11.5 µM | – |
| CN1CCOC1(C)CO (stereo not given) | > 200 | > 200 µM | – |
| N#CC(NCc1cccc(CNC(C#N)c2ccccc2)c1)c1ccccc1 (stereo not given) | > 200 | 89.1 µM | – |
| CCCCCCCCCCCc1nnc(N)o1 | – | – | inactive |
| COc1cc(N=Nc2cc(S(=O)(=O)O)cc3cc(S(=O)(=O)O)cc(O)c23)c(C)cc1N=Nc1c(S(=O)(=O)O)cc2cc(Nc3ccccc3)ccc2c1O | – | – | inactive |
| O=c1n(-c2ccc(Cl)c(Cl)c2)c(=O)n(-c2ccc(Cl)c(Cl)c2)c(=O)n1-c1ccc(Cl)c(Cl)c1 | > 200 | 5.89 µM | – |
| COc1cccc(C2=NC(C(C)C)CO2)c1OC (stereo not given) | > 525 | 316 µM | – |
| O=c1[nH]nc(-c2ccccc2)n1/N=C\c1ccccc1 | > 200 | > 200 µM | – |
| CCCc1nc2c(nc1C)C(=O)C=CC2=O | > 832 | 17 µM | – |
| O=C1NCCCNCCCNCCCNC(=O)c2cccc1n2 | > 200 | 186 µM | – |
| O=c1ccn([C@@H]2C[C@H](CO)[C@H](O)C2)c(=O)[nH]1 | > 1100 | > 1100 µM | – |
| O=c1[nH]cc(S)c(=O)[nH]1 | 151 | > 200 µM | – |
| COc1c(C)c2c(c3c1c(=O)c1ccccc1n3C)C=CC(C)(C)O2 | > 15.5 | 11 µM | – |
| O=C1c2c(O)ccc(O)c2C(=O)c2c(NCCNC(=O)C(O)C(O)C(O)C(O)CO)ccc(NCCNC(=O)C(O)C(O)C(O)C(O)CO)c21 (stereo not given) | > 100 | 0.0316 µM | – |
| COc1ccc(-c2oc3cc(OC)c(OC)c(OC)c3c(=O)c2OC)cc1OC | > 200 | 3.8 µM | – |
| c1cc2cc3c4c5c(cc6ccc7cc8cc9c%10c8c8c7c6c5c8c5c%10c(c1C9N1CCOCCOCCOCCOCCOCC1)c2c45)C3 (stereo not given) | > 100 | > 100 µM | – |
| COc1ccc2c(c1)C=CC1OC(C(C)=O)(C(C)=O)C(C=O)=CN21 (stereo not given) | > 79.4 | 38.9 µM | – |
| C(/Cc1ccc2c(c1)OCO2)=N\NC1=NCCCN1 | > 200 | 38.9 µM | – |
| O=C(OOC(=O)c1ccccc1)c1ccccc1 | > 200 | > 200 µM | – |
| c1ccc2c3nnc(c2c1)SCCCSc1nnc(c2ccccc12)SCCCS3 | > 200 | > 200 µM | – |
| CC(=O)OCC1C(OC(C)=O)CC2CCC1N2C#N (stereo not given) | > 200 | > 200 µM | – |
| COc1ccc(NC(=O)CSc2nc(C)nc3c2sc(=S)n3-c2ccccc2)cc1 | > 200 | > 200 µM | – |

| Compound | EC50 [µM] | IC50 | outcome |
| --- | --- | --- | --- |
| NC(CCc1nc(-c2ccccc2)cs1)C(=O)O (stereo not given) | – | – | inactive |
| COc1cc2c(cc1OC)-c1cc3ccccc3c(=O)n1CCC2 | > 20 | 2.82 µM | – |
| COc1cc(C2c3cc4c(c(O)c3C(=O)C3CCC(=O)N32)OCO4)cc(OC)c1OC (stereo not given) | > 200 | 20.9 µM | – |
| O=C(CCCl)NNC1=NCCN1 | > 200 | > 200 µM | – |
| CCOC(=O)c1cc(C2CCN(c3ccccc3)C2=O)c(C(=O)/C=C(/C)N)[nH]1 (stereo not given) | 57.5 | > 200 µM | – |
| CCOC(=O)c1nc2ccccc2nc1NCc1ccc(OC)cc1 | > 138 | 70.8 µM | – |
| C1CCC2(CC1)SSC1(CCCCC1)S2 | > 200 | 110 µM | – |
| COc1ccc(C(c2c(O)c3ccccc3oc2=O)N2CCCC2)cc1 (stereo not given) | > 200 | 123 µM | – |
| O=c1[nH]c(-c2nc3ccccc3c(=O)[nH]2)nc2ccccc12 | > 32.4 | > 32.4 µM | – |
| C1CNCCSCCCSCCNC1 | > 200 | > 200 µM | – |
| COC(=O)c1ccc(COC(=O)N2C=CCC2C(=O)O)cc1 (stereo not given) | > 200 | > 200 µM | – |
| CC12C(=O)OCC1C1CCC2C1 (stereo not given) | > 537 | > 537 µM | – |
| c1ccc2c(c1)[nH]c1c2c(N2CCOCC2)nn2cnnc12 | > 200 | > 200 µM | – |
| COC(=O)c1c(C)cccc1C1CN=NC12Cc1ccccc1C2=O (stereo not given) | 27.5 | 102 µM | – |
| COC(=O)c1cc(C(=CC=O)c2cc(Cl)c(OC)c(C(=O)OC)c2)cc(Cl)c1OC | > 200 | 8.91 µM | – |
| Cc1cc(S(=O)(=O)Nc2nc(N)nc3nc4ccccc4n23)c(S)cc1Cl | 95.5 | 380 µM | – |
| COc1ccc2nc3ccc(OC)cc3c(SCC3CO3)c2c1 (stereo not given) | > 200 | 3.63 µM | – |
| CCCCCCCCCCCCCCCC=C(c1cc(Cl)c(OC)c(C(=O)O)c1)c1cc(Cl)c(OC)c(C(=O)O)c1 | > 1200 | 26.3 µM and 52.5 µM | – |
| COc1ccc(/C=c2\sc3n(c2=O)C(N)=C(C#N)C(c2ccc(OC)cc2)C=3c2nc3ccccc3[nH]2)cc1 (stereo not given) | > 7.08 | > 7.08 µM | – |
| c1ccc2c(c1)CN1CCCC1CN2 (stereo not given) | > 200 | > 200 µM | – |
| N#Cc1ccsc1C#N | > 200 | > 200 µM | – |
| COC(=O)Nc1nc2ccc(SC)cc2c(=O)[nH]1 | > 355 | 12.6 µM | – |
